Values quoted from earlier work, collected in patent publication US20240398838A1 (priority 2023, published 2024).
Square brackets hold non-standard residues; d marks the D form. Peptide text beside a SMILES is read from it. Cit = NC(=O)NCCC[C@H](N)C(=O)O

Legend:
[1] = topical, within four weeks of treatment
[2] = in vivo
[3] = tested on: wide dynamic range neurons in the ventroposterolateral nucleus of the thalamus; details: in vivo
[4] = mice with colitis
[5] = compared to α-tocopherol = 1.0
[6] = individuals with metabolic syndrome
[7] = patients who did not respond to traditional antidepressant medications
[8] = topical, concentrations 0.5-5%
[9] = compared to placebo
[10] = not given; remark: listed apart in the source
[11] = tested on: herpes simplex virus type 1
CB2 receptor = CB2 receptor (Homo sapiens, UniProt P34972)
[12] = arthritic subjects
[13] = even when dietary intake occurs in equal portions
[14] = tested on: leukemia cells of two cultured leukemia cell lines; details: in vitro
[15] = in vivo; remark: listed apart in the source
ticks and mosquitoes = details: compared with DEET

Chain of CB2 receptor (P34972 whole entry): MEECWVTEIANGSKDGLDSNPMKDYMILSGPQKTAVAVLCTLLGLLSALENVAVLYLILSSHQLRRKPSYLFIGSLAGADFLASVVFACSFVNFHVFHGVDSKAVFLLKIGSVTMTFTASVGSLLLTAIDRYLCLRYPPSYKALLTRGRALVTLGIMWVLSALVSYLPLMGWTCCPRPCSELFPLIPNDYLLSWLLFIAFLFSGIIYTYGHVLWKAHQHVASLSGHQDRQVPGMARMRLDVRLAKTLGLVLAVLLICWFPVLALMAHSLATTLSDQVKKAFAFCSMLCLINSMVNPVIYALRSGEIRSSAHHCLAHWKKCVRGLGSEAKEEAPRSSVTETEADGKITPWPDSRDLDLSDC

Question: With `CC[C@H](C)[C@H](NC(=O)[C@H](CC(=O)O)NC(=O)[C@@H](N)CCCCN)C(=O)N[C@@H](CCCNC(N)=O)C(N)=O` [Tripeptide-10 citrulline] (H-KDI[Cit]-NH2) as the molecule, how does the improve suppleness [1] read?
Answer: ≤ 54%

Question: With `CC(C)=CCC[C@](C)(O)[C@@H]1CC=C(C)CC1` [A-bisabolol, α-bisabolol] as the molecule, how does the antifungal activity (candida species) read?
Answer: potent inhibitor

Question: For “HGH: hormone comprising a peptide chain that is synthesized in the pituitary gland”, which biological half-life [2] is on record?
Answer: 10-20 minutes

Question: Which “power in mediating pain relative to morphine” value [3] does the source give for `CCCCCc1cc(O)c2c(c1)OC(C)(C)C1CCC(C)=CC21` (centres unmarked) [THC, Δ-9-tetrahydrocannabinol] here?
Answer: ten times more powerful than morphine

Question: What about the “modulation of the gut microbiome” value [4] of the same molecule?
Answer: ability to modulate the gut microbiome

Question: What does the source list for `Cc1cc(O)cc2c1O[C@](C)(CCC[C@H](C)CCC[C@H](C)CCCC(C)C)CC2` [δ-tocopherol]?
Answer: relative biological activity [5]: 0.03; markers of inflammation in the blood [6]: reduced markers of inflammation

Question: With `CN1c2c([nH]c(N)nc2=O)NCC1CNc1ccc(C(=O)N[C@@H](CCC(=O)O)C(=O)O)cc1` (some centres unmarked) [5-MTHF, 5-methyltetrahydrofolate] as the molecule, how does the symptoms of depression [7] read?
Answer: improved symptoms of depression

Question: Which “blood plasma concentration of F2-isoprostane” value (1600-3200 IU/day) does the source give for `Cc1c(C)c2c(c(C)c1O)CC[C@@](C)(CCC[C@H](C)CCC[C@H](C)CCCC(C)C)O2` [α-tocopherol] here?
Answer: significantly lower

Question: And the “reducing the risk of coronary disease” value (doses up to 400 IU/day)?
Answer: up to 34%

Question: And the “reduce the risk of developing neurodegenerative diseases such as Alzheimer's Syndrome or dementia” value (doses up to 400 IU/day, controlled trials)?
Answer: ≤ 24%

Question: Which “time of treatment to skin lightening effects” value [8] does the source give for `C=CCCCCCCCCC(=O)N[C@@H](Cc1ccccc1)C(=O)O` [UP, Undecylenoyl phenylalanine] here?
Answer: ≥ 7 days

Question: Which antifungal activity (candida species) does the source give for `Cc1ccc(C(C)C)cc1` [p-cymene, 1-isopropyl-4-methylbenzene] here?
Answer: strong antifungal activity

Question: For `C/C=C1\[C@H]2C=C(C)C[C@]1(N)c1ccc(=O)[nH]c1C2` [Huperzine A], which “memory recall and cognitive function” value [9] is on record?
Answer: significant improvements

Question: With `CC1=CCC(=C(C)C)CC1` [Terpinolene] as the molecule, how does the “expression of the AKT1 gene” value (AKT1 gene) read?
Answer: markedly reduces

Question: Which solubility [10] does the source give for `C/C(=C\CO)CCC[C@H](C)CCC[C@H](C)CCCC(C)C` [Phytol] here?
Answer: nearly insoluble in water, but soluble in most organic solvents

Question: With `C=C(C)[C@@H]1CCC(C)=C[C@H]1c1c(O)cc(CCCCC)cc1O` [CBD, cannabidiol] as the molecule, how does the “modulation of the gut microbiome” value [4] read?
Answer: ability to modulate the gut microbiome

Question: With `CC1(C)[C@@H]2CC[C@@]1(C)[C@@H](O)C2` [Isoborneol] as the molecule, how does the “inhibition of herpes simplex virus type 1” value [11] read?
Answer: potent inhibitor

Question: Which “activity at CB2 receptor” value (CB2 receptor) does the source give for `C=C1CC/C=C(\C)CC[C@@H]2[C@@H]1CC2(C)C` [β-caryophyllene] here?
Answer: functional CB2 agonist

Question: And the “swelling of joints and lymph nodes” value [12]?
Answer: reduced swelling of joints and lymph nodes

Question: Which results are given for `Cc1c(O)cc2c(c1C)O[C@](C)(CCC[C@H](C)CCC[C@H](C)CCCC(C)C)CC2` [γ-tocopherol]?
Answer: relative biological activity [5]: 0.1; concentration in vivo relative to α-tocopherol [13]: roughly 10%

Question: Which “killing of leukemia cells” value [14] does the source give for `CC12CCC(CC1)C(C)(C)O2` [eucalyptol, 1,8-epoxy-p-menthane] here?
Answer: able to kill

Question: For `CCNC(=O)CC[C@H](N)C(=O)O` [Theanine], which “dose considered safe and well-tolerated” value [15] is on record?
Answer: up to 400 mg per day

Question: Which relative biological activity [5] does the source give for `Cc1cc(O)c(C)c2c1O[C@](C)(CCC[C@H](C)CCC[C@H](C)CCCC(C)C)CC2` [β-tocopherol] here?
Answer: 0.5

Question: Which “toxicity to ticks and mosquitoes” value (ticks and mosquitoes) does the source give for `C=C(C)[C@@H]1CCC2=CCC[C@@H](C)[C@]2(C)C1` [Valencene] here?
Answer: toxic to ticks and mosquitoes at lesser concentrations than DEET
